Test results: PMC8617031, “Development of a BCL-xL and BCL-2 dual degrader with improved anti-leukemic activity,” (Nature Communications, 2021)
Values joined by “and” are separate entries in the source; they are usually repeats but may differ in a detail not shown here. Identical values can stand only once. Like-named read-outs stand apart in the source and are kept apart here.

Experiments:
[1] = biological target: T1, BCL-xL (Homo sapiens, UniProt Q07817); test: BCL-xL degradation by immunoblot in 293T cells; assay type: cell-based; details: HEK-293T
T1 construct: endogenous in cells
Procedure: (§1) The DC50 and Dmax were calculated using Prism based on the ImageJ-quantified western blots in Supplementary Fig. 4. c, d AlphaLISA assay to determine the formation of BCL-xL/PROTAC/VHL-ELOC-ELOB (VCB) (c) or BCL-2/PROTAC/VCB (d) ternary complex in a cell-free condition. Data represent the mean of a single experiment with 2 technical replicates. Similar results were obtained in one more independent experiment. e, f NanoBRET assays evaluating intracellular BCL-xL/PROTAC/VCB (e) or BCL-2/PROTAC/VCB (f) ternary complex formation. […] Data are expressed as mean ± s.e.m. of three biological replicates. Source data are provided as a Source data file.
(§2) Representative immunoblots are shown in (a–d) and β-actin was used as a loading control in all immunoblot analyses. The normalized protein content in the immunoblots is presented as mean values ± s.e.m. (n = 3 biologically independent experiments) in the bar graph (bottom panel). e, f The formation of BCL-xL/PROTAC/VCB (e) and BCL-2/PROTAC/VCB (f) ternary complexes in a cell-free condition was determined by AlphaLISA assay. Data represent the mean of a single experiment with 2 technical replicates. […] Source data are provided as a Source data file.
(§3) Cells were collected, washed once with ice-cold phosphate-buffered saline, pH 7.2 (PBS, cat. no. 20012027; Thermo Fisher Scientific) and lysed in RIPA lysis buffer (Cat. No. BP-115DG, Boston Bio Products, Ashland, MA, USA) supplemented with protease and phosphatase inhibitor cocktails (Cat. No. PPC1010, Sigma-Aldrich, St. Louis, MO, USA) through sonication. The samples were centrifuged at 14,000 r.p.m. for 5 min and the supernatants were transferred into a new tube. The protein concentration in the supernatants was determined using the Pierce BCA protein Assay kit (cat. no. 23225, Thermo Fisher Scientific). The protein concentration was normalized, and the samples were reduced in 4× Laemmli’s SDS-sample buffer (cat. no. BP-110R, Boston Bio Products) and denatured at 95 °C for 5 min. An equal amount of protein samples (20–40 μg per lane) were resolved using precast 4–20% Tris-glycine gels (Mini-PROTEAN TGX, cat. no. 456–1094, Bio-Rad), and resolved proteins were transferred onto 0.2-µm pore size polyvinylidene difluoride (PVDF) blotting membranes (cat. no. LC2002, Thermo Fisher Scientific) using mini trans-blot electrophoretic transfer cell (Bio-Rad). The membranes were blocked with non-fat dry milk (5% wt/vol) in 1× Tris-buffered saline-Tween-20 (TBST, cat. no. J77500, Affymetrix) for 1 h at room temperature, and were subsequently probed with primary antibodies at a predetermined optimal concentration in non-fat dry milk (5% wt/vol in TBST) overnight at 4 °C. The membranes were washed three times (5 min each) in TBST and then incubated with horse radish peroxidase (HRP)-conjugated secondary antibodies for 1 h at room temperature. Following sufficient washing with TBST, the membranes were exposed with chemiluminescent HRP substrate (cat. no. WBKLS0500, MilliporeSigma), and the signal was detected using the ChemiDoc MP Imaging System (Bio-Rad) and quantified using the ImageJ (v1.53a) software from NIH.

[2] = biological target: T2, BCL-xL/PROTAC/VHL-ELOC-ELOB (VCB) ternary complex (Homo sapiens, UniProt P40337+Q07817); test: AlphaLISA ternary complex formation, cell-free, BCL-xL; assay type: binding; details: for AlphaLISA signal, BCL-xL/PROTAC/VCB: Fig. 2c raw Alpha reads
T2 construct: pGEX-6P-1-VHL(54-213) (pDL2200) was constructed through Gibson assembly method; made in house; host or cells: bacterial culture (LB broth, IPTG induction)
Procedure: (§4) AlphaLISA assay was used to evaluate the in vitro ternary complex formation between target proteins (BCL-xL or BCL-2), PROTAC and E3 ligase (VCB complex). In each well, 5 nM His-tagged BCL-xL or BCL-2 proteins and 5 nM GST-VCB complex was incubated with varying concentrations of compounds in fourfold serial dilutions, to a final volume of 40 µl in a 96-well PCR plate. After incubation at room temperature for 30 min, 5 µl alpha glutathione-donor beads (Cat. No. 6765300, PerkinElmer) were added to each well (20 µg/ml final concentration) and incubated for another 15 min. Thereafter, 5 µL 6× His-acceptor beads were added to each well (20 µg/ml final concentration) and incubated for an additional 45 min at room temperature. Thereafter, 17 µl of each sample was transferred in adjacent wells of a 384-well proxy plate, and the plate was scanned using the Alpha program on Biotek’s Synergy Neo2 multimode plate reader. The data were expressed as average AlphaLISA signal and plotted against different concentrations of compounds using GraphPad Prism 9 software.

[3] = biological target: T3, BCL-2/PROTAC/VCB ternary complex (Homo sapiens, UniProt P10415+P40337); test: AlphaLISA ternary complex formation, cell-free, BCL-2; assay type: binding; details: for AlphaLISA signal, BCL-2/PROTAC/VCB: Fig. 2d raw Alpha reads
T3 construct: pGEX-6P-1-VHL(54-213) (pDL2200) was constructed through Gibson assembly method; made in house; host or cells: bacterial culture (LB broth, IPTG induction)
Procedure: as §4

[4] = biological target: T4, BCL-2 (Homo sapiens, UniProt P10415); test: BCL-2 degradation by immunoblot in 293T cells; assay type: cell-based; details: HEK-293T
T4 construct: endogenous in cells
Procedure: as §1, §2, §3

[5] = system: Kasumi-1 cells; test: Viability (MTS) of Kasumi-1 AML cells; assay type: cell-based, human; details: for IC50: Homo sapiens, Kasumi 1, 72 h
[6] = compound 200000 nM, 2 technical replicates

T2 sequence (Q07817 1-212 limits assumed): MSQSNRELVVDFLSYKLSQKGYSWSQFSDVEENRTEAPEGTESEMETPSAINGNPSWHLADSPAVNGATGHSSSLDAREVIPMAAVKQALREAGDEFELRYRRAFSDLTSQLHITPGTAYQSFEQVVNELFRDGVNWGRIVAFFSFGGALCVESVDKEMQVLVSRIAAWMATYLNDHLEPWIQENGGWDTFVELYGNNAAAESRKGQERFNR
T2 sequence (P40337 54-213 limits assumed): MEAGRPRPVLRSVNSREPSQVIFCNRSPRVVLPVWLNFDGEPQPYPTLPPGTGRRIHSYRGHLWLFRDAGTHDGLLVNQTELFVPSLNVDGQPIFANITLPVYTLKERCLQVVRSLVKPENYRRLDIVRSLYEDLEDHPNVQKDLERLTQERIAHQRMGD
T2 sequence (Q15369 17-112 partner limits assumed): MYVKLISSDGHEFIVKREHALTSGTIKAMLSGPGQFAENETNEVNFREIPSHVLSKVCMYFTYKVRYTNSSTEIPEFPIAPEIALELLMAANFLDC
T2 sequence (Q15370 whole entry partner): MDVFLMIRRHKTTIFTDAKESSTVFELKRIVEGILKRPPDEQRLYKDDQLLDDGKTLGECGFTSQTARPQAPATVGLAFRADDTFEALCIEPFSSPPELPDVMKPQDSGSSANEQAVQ
T3 sequence (P10415 1-211 limits assumed): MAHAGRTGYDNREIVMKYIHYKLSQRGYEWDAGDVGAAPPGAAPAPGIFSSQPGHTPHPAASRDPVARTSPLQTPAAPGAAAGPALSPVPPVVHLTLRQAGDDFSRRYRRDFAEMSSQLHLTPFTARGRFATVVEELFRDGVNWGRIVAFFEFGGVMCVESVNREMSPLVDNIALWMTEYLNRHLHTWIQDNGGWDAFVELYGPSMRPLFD
T3 sequence (P40337 54-213 limits assumed): as the sequence (P40337 54-213 limits assumed) above
T3 sequence (Q15369 17-112 partner limits assumed): as the sequence (Q15369 17-112 partner limits assumed) above
T3 sequence (Q15370 whole entry partner): as the sequence (Q15370 whole entry partner) above
T1 sequence (Q07817 whole entry): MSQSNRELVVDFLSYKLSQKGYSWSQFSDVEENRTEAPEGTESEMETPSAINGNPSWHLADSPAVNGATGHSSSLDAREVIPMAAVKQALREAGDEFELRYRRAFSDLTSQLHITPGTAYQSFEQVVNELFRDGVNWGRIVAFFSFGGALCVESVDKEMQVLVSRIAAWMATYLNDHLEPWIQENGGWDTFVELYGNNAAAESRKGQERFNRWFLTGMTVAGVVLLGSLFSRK
T4 sequence (P10415 whole entry): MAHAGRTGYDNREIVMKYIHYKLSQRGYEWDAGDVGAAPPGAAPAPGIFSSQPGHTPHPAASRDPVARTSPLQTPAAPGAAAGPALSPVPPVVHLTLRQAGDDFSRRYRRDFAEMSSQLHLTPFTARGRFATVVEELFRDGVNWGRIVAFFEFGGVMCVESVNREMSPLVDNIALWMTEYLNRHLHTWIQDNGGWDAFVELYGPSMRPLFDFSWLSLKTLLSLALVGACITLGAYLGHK

Q: Which results are given for `Cc1ncsc1-c1ccc([C@H](C)NC(=O)[C@@H]2C[C@@H](O)CN2C(=O)[C@@H](NC(=O)CCCCCCCCCC(=O)N2CCN(CC3(C)CCC(c4ccc(Cl)cc4)=C(CN4CCN(c5ccc(C(=O)NS(=O)(=O)c6ccc(N[C@H](CCN7CCOCC7)CSc7ccccc7)c(S(=O)(=O)C(F)(F)F)c6)cc5)CC4)C3)CC2)C(C)(C)C)cc1` (some centres unmarked) [PPC11]?
A: Dmax [1]: 38%; in vitro ternary complex formation with BCL-xL (in words) ([2]; AlphaLISA, cell-free, Fig. 2c, 3e): much weaker ternary complexes; AlphaLISA signal, BCL-xL/PROTAC/VCB ([2]; compound 0.191 nM): 14159 and 17511; AlphaLISA signal, BCL-xL/PROTAC/VCB ([2]; compound 0.763 nM): 19035 and 14403; AlphaLISA signal, BCL-xL/PROTAC/VCB ([2]; compound 3.052 nM): 18192 and 15524; AlphaLISA signal, BCL-xL/PROTAC/VCB ([2]; compound 12.207 nM): 16016 and 15699; AlphaLISA signal, BCL-xL/PROTAC/VCB ([2]; compound 48.828 nM): 18370 and 17440; AlphaLISA signal, BCL-xL/PROTAC/VCB ([2]; compound 195.31 nM): 28376 and 33281; AlphaLISA signal, BCL-xL/PROTAC/VCB ([2]; compound 781.25 nM): 25822 and 27451; AlphaLISA signal, BCL-xL/PROTAC/VCB ([2]; compound 3125 nM): 15301 and 22197; AlphaLISA signal, BCL-xL/PROTAC/VCB ([2]; compound 12500 nM): 15507 and 16950; AlphaLISA signal, BCL-xL/PROTAC/VCB ([2]; compound 50000 nM): 13057 and 15839; AlphaLISA signal, BCL-xL/PROTAC/VCB [2, 6]: 17326 and 15566; in vitro ternary complex formation with BCL-2 (in words) ([3]; AlphaLISA, cell-free, Fig. 2d, 3f): much weaker ternary complexes; AlphaLISA signal, BCL-2/PROTAC/VCB ([3]; compound 0.191 nM): 16751 and 14492; AlphaLISA signal, BCL-2/PROTAC/VCB ([3]; compound 0.763 nM): 17062 and 15173; AlphaLISA signal, BCL-2/PROTAC/VCB ([3]; compound 3.052 nM): 17477 and 13618; AlphaLISA signal, BCL-2/PROTAC/VCB ([3]; compound 12.207 nM): 15016 and 16035; AlphaLISA signal, BCL-2/PROTAC/VCB ([3]; compound 48.828 nM): 21071 and 20895; AlphaLISA signal, BCL-2/PROTAC/VCB ([3]; compound 195.31 nM): 36395 and 36207; AlphaLISA signal, BCL-2/PROTAC/VCB ([3]; compound 781.25 nM): 16303 and 18907; AlphaLISA signal, BCL-2/PROTAC/VCB ([3]; compound 3125 nM): 17856 and 16482; AlphaLISA signal, BCL-2/PROTAC/VCB ([3]; compound 12500 nM): 13061 and 15598; AlphaLISA signal, BCL-2/PROTAC/VCB ([3]; compound 50000 nM): 10324 and 9718; AlphaLISA signal, BCL-2/PROTAC/VCB [3, 6]: 13464 and 10765; Dmax [4]: 38%

Q: Which results are given for `CC1(C)CCC(CN2CCN(c3ccc(C(=O)NS(=O)(=O)c4ccc(NCC5CCOCC5)c([N+](=O)[O-])c4)c(Oc4cnc5[nH]ccc5c4)c3)CC2)=C(c2ccc(Cl)cc2)C1` [ABT199, venetoclax]?
A: Luminescence (raw plate reading) ([5]; 3.90625 nM (plate column 2), Fig. 7a): 505600 and 468580 and 525678 and 543318; Luminescence (raw plate reading) ([5]; 7.8125 nM (plate column 3), Fig. 7a): 504424 and 455660 and 487360 and 542979; Luminescence (raw plate reading) ([5]; 15.625 nM (plate column 4), Fig. 7a): 489014 and 455068 and 501527 and 480804; Luminescence (raw plate reading) ([5]; 31.25 nM (plate column 5), Fig. 7a): 466073 and 441818 and 471956 and 491899; Luminescence (raw plate reading) ([5]; 62.5 nM (plate column 6), Fig. 7a): 440585 and 409812 and 377802 and 367500; Luminescence (raw plate reading) ([5]; 125 nM (plate column 7), Fig. 7a): 397154 and 357971 and 355935 and 386744; Luminescence (raw plate reading) ([5]; 250 nM (plate column 8), Fig. 7a): 359551 and 316363 and 300748 and 321366; Luminescence (raw plate reading) ([5]; 500 nM (plate column 9), Fig. 7a): 315682 and 289875 and 281016 and 292587; Luminescence (raw plate reading) ([5]; 1000 nM (plate column 10), Fig. 7a): 293868 and 256148 and 279970 and 273769; Luminescence (raw plate reading) ([5]; 2000 nM = 2U (plate column 11), Fig. 7a): 258049 and 207791 and 210071 and 198590; Luminescence (raw plate reading) ([5]; 4000 nM = 4U (plate column 12), Fig. 7a): 180705 and 155931 and 141587 and 133830; Luminescence normalised to mean of the 0 concentration wells (= 100), viability ([5]; 3.90625 (nM), Fig. 7a): 73.8707 and 68.4619 and 76.8042 and 79.3815; Luminescence normalised to mean of the 0 concentration wells (= 100), viability ([5]; 7.8125 (nM), Fig. 7a): 73.6989 and 66.5743 and 71.2058 and 79.332; Luminescence normalised to mean of the 0 concentration wells (= 100), viability ([5]; 15.625 (nM), Fig. 7a): 71.4474 and 66.4878 and 73.2757 and 70.2479; Luminescence normalised to mean of the 0 concentration wells (= 100), viability ([5]; 31.25 (nM), Fig. 7a): 68.0956 and 64.5519 and 68.9552 and 71.869; Luminescence normalised to mean of the 0 concentration wells (= 100), viability ([5]; 62.5 (nM), Fig. 7a): 64.3717 and 59.8756 and 55.1988 and 53.6936; Luminescence normalised to mean of the 0 concentration wells (= 100), viability ([5]; 125 (nM), Fig. 7a): 58.0262 and 52.3014 and 52.0039 and 56.5053; Luminescence normalised to mean of the 0 concentration wells (= 100), viability ([5]; 250 (nM), Fig. 7a): 52.5322 and 46.2223 and 43.9408 and 46.9532; Luminescence normalised to mean of the 0 concentration wells (= 100), viability ([5]; 500 (nM), Fig. 7a): 46.1228 and 42.3522 and 41.0579 and 42.7485; Luminescence normalised to mean of the 0 concentration wells (= 100), viability ([5]; 1000 (nM), Fig. 7a): 42.9356 and 37.4245 and 40.905 and 39.9991; Luminescence normalised to mean of the 0 concentration wells (= 100), viability ([5]; 2000 (nM, 2U), Fig. 7a): 37.7023 and 30.3593 and 30.6924 and 29.015; Luminescence normalised to mean of the 0 concentration wells (= 100), viability ([5]; 4000 (nM, 4U), Fig. 7a): 26.4019 and 22.7823 and 20.6866 and 19.5532; IC50 ([5]; Fig. 7a, read-out: IC50, viability of Kasumi-1 AML cells): 867 nM; IC50 ([5]; Fig. 7c, read-out: IC50, viability of Kasumi-1 cells): 1130 nM
